Source: DBAASP
Values after ≈ are worked out from the molar mass of the structure shown. Values belong to the molecule of their own block, whether it stands above or below them.

Assays:
Experiment in all cases: ≥ marks a high value that may be exact or a test limit, other limits are often not marked, values filed in µg/mL are converted to µM
[1] = test system: Bacillus anthracis UM23-CL2
[2] = test system: Burkholderia cepacia J2540
[3] = test system: Escherichia coli K12 MG1655
[4] = test system: Staphylococcus aureus 68 HER 1049
Bacillus subtilis PS832 = test system: Bacillus subtilis PS832
Escherichia coli MG1655 = test system: Escherichia coli MG1655
[5] = test system: Enterobacter cloacae beta-12
[6] = test system: Enterococcus faecalis ATCC 29212
Enterococcus faecium = test system: Enterococcus faecium
Escherichia coli BL21 = test system: Escherichia coli BL21
[7] = test system: Pseudomonas aeruginosa PA14
Pseudomonas aeruginosa = test system: Pseudomonas aeruginosa
[8] = test system: Staphylococcus aureus ATCC 25923
[9] = test system: Staphylococcus aureus K35
[10] = test system: Staphylococcus aureus K52
[11] = test system: Staphylococcus epidermidis ATCC 12228
[12] = test system: Escherichia coli ATCC 25922
[13] = test system: Pseudomonas aeruginosa ATCC 10419
[14] = test system: Pseudomonas aeruginosa ATCC 21625
[15] = test system: Pseudomonas aeruginosa ATCC 21630
[16] = test system: Pseudomonas aeruginosa LCCE
[17] = test system: Pseudomonas aeruginosa LCCI
[18] = test system: Pseudomonas aeruginosa LCGE
[19] = test system: Pseudomonas aeruginosa LC
[20] = test system: Salmonella enterica subsp. enterica serovar Typhimurium C77-31
[21] = test system: Staphylococcus aureus ATCC 29213
[22] = test system: Acinetobacter baumannii ATCC BAA-1605
[23] = test system: Escherichia coli ATCC 43827
[24] = test system: Pseudomonas aeruginosa ATCC 27853
[25] = test system: Pseudomonas aeruginosa ATCC 9027
[26] = test system: Staphylococcus aureus ATCC 29313
[27] = test system: Staphylococcus aureus ATCC 33591
[28] = test system: Xanthomonas axonopodis pv. glycines ISBF 327

Compound: CC[C@H](C)[C@H](NC(=O)CN)C(=O)NCC(=O)N[C@@H](CCCCN)C(=O)N[C@@H](Cc1ccccc1)C(=O)N[C@@H](CC(C)C)C(=O)N[C@@H](Cc1cnc[nH]1)C(=O)N[C@@H](CO)C(=O)N[C@@H](C)C(=O)N[C@@H](CCCCN)C(=O)N[C@@H](CCCCN)C(=O)N[C@@H](Cc1ccccc1)C(=O)N[C@@H](Cc1ccccc1)C(=O)N[C@@H](CCCCN)C(=O)N[C@@H](CCCN=C(N)N)C(=O)N[C@H](C(=O)N[C@H](C(=O)N[C@@H](CCC(N)=O)C(=O)N[C@@H](CCCN=C(N)N)C(=O)N[C@H](C(=O)N[C@@H](CCCCN)C(=O)N[C@@H](CC(=O)O)C(=O)N[C@@H](Cc1ccccc1)C(=O)N[C@@H](CC(C)C)C(=O)N[C@@H](CCCN=C(N)N)C(=O)O)[C@@H](C)CC)C(C)C)[C@@H](C)CC [GIGKFLHSAKKFFKRIVQRIKDFLR]
- MIC [1]: ≥ 82.4 µM
- MIC [2]: ≥ 82.4 µM

Compound: CC[C@H](C)[C@H](NC(=O)CNC(=O)[C@H](CO)NC(=O)[C@H](CC(C)C)NC(=O)[C@@H](NC(=O)[C@H](CCCCN)NC(=O)CNC(=O)[C@@H](NC(=O)[C@H](CC(C)C)NC(=O)[C@@H]1CCCN1C(=O)[C@H](CC(C)C)NC(=O)[C@@H](N)Cc1ccccc1)[C@@H](C)CC)C(C)C)C(=O)N[C@@H](CC(C)C)C(N)=O [FLPLIGKVLSGIL]
- MIC [5]: ≥ 128 µM
- MIC [6]: 20.9 µM (≈ 28.6 µg/mL)
- MIC (Enterococcus faecium): 17.5 µM (≈ 24 µg/mL)
- MIC (Escherichia coli BL21): ≥ 64 µM
- MIC [7]: ≥ 128 µM
- MIC (Pseudomonas aeruginosa): > 64 µM
- MIC [8]: 5.2 µM (≈ 7.12 µg/mL)
- MIC [9]: 4.4 µM (≈ 6.02 µg/mL)
- MIC [10]: 4.4 µM (≈ 6.02 µg/mL)
- MIC [11]: ≥ 128 µM

Second part, led by results:

- MIC [3]: 2.19 µM (≈ 4 µg/mL)
- MIC [4]: 2.19 µM (≈ 4 µg/mL)
Compound: CC[C@H](C)[C@H](NC(=O)[C@H](CC(C)C)NC(=O)[C@H](CCCN=C(N)N)NC(=O)[C@H](Cc1c[nH]c2ccccc12)NC(=O)CN)C(=O)N[C@@H](CCCCN)C(=O)N[C@@H](CCCCN)C(=O)N[C@H](C(=O)N[C@@H](CC(C)C)C(=O)N[C@@H](CCCN=C(N)N)C(=O)N[C@H](C(=O)N[C@@H](Cc1ccccc1)C(=O)N[C@@H](CCCCN)C(=O)NCC(=O)N[C@@H](CC(C)C)C(=O)O)C(C)C)[C@@H](C)CC [GWRLIKKILRVFKGL]

- MIC (Bacillus subtilis PS832): 4 µM (≈ 6.19 µg/mL)
- MIC (Escherichia coli MG1655): 8 µM (≈ 12.4 µg/mL)
Compound: CC[C@H](C)[C@H](NC(=O)[C@H](CCCN=C(N)N)NC(=O)[C@H](CCCCN)NC(=O)[C@H](CC(C)C)NC(=O)[C@H](CC(C)C)NC(=O)CNC(=O)[C@H](Cc1cnc[nH]1)NC(=O)[C@@H](NC(=O)[C@@H](N)CCCN=C(N)N)[C@@H](C)O)C(=O)N[C@@H](CCCCN)C(=O)N[C@H](C(=O)N[C@@H](CC(C)C)C(=O)N[C@@H](CC(C)C)C(N)=O)[C@@H](C)O [RTHGLLKRIKTLL]

- MIC [12]: 64 µM (≈ 145 µg/mL)
- MIC [13]: 4 µM (≈ 9.07 µg/mL)
- MIC [14]: 4 µM (≈ 9.07 µg/mL)
- MIC [15]: 4 µM (≈ 9.07 µg/mL)
- MIC [16]: 4 µM (≈ 9.07 µg/mL)
- MIC [17]: 2 µM (≈ 4.54 µg/mL)
- MIC [18]: 4 µM (≈ 9.07 µg/mL)
- MIC [19]: 1 µM (≈ 2.27 µg/mL)
- MIC [20]: ≥ 128 µM
- MIC [21]: 128 µM (≈ 290 µg/mL)
- MIC [11]: 64 µM (≈ 145 µg/mL)
Compound: CC[C@H](C)[C@H](NC(=O)[C@H](CCCCN)NC(=O)[C@H](CCCCN)NC(=O)[C@H](CC(C)C)NC(=O)[C@H](CCCN=C(N)N)NC(=O)[C@H](CCCCN)NC(=O)[C@H](CCCN=C(N)N)NC(=O)[C@H](Cc1c[nH]c2ccccc12)NC(=O)[C@H](CCCCN)NC(=O)[C@H](CCCCN)NC(=O)[C@H](CCCN=C(N)N)NC(=O)[C@H](CC(C)C)NC(=O)[C@H](CCCN=C(N)N)NC(=O)[C@H](CCCN=C(N)N)NC(=O)[C@H](Cc1ccccc1)NC(=O)[C@@H](N)CCCN=C(N)N)C(N)=O [RFRRLRKKWRKRLKKI]

- MIC [22]: ≥ 50.3 µM
- MIC [23]: ≥ 201 µM
- MIC [24]: 100 µM (≈ 254 µg/mL)
- MIC [25]: > 201 µM
- MIC [27]: ≥ 201 µM
- MIC [28]: 25 µM (≈ 63.6 µg/mL)
Compound: CC[C@H](C)[C@H](NC(=O)[C@H](CCCCN)NC(=O)[C@H](CC(N)=O)NC(=O)[C@@H](NC(=O)[C@@H](NC(=O)[C@H](CCCCN)NC(=O)[C@@H](NC(=O)[C@H](C)NC(=O)[C@@H](NC(=O)[C@H](Cc1cnc[nH]1)NC(=O)CNC(=O)[C@H](C)NC(=O)[C@H](CC(C)C)NC(=O)[C@H](CC(=O)O)NC(=O)[C@H](CCCCN)NC(=O)[C@H](C)NC(=O)[C@H](C)NC(=O)CNC(=O)[C@H](CCCCN)NC(=O)[C@H](CC(C)C)NC(=O)[C@@H](NC(=O)[C@H](CC(=O)O)NC(=O)[C@H](CC(C)C)NC(=O)[C@@H](NC(=O)CN)C(C)C)[C@@H](C)CC)C(C)C)[C@@H](C)O)C(C)C)[C@@H](C)CC)C(N)=O [GVLDILKGAAKDLAGHVATKVINKI]
- MIC [26]: ≥ 50 µM
